Experimental data as given in US10703752B2, “Integrin antagonists” (OXURION NV, priority 2018, dated 2020).
Counter-ions that a name gives are not always drawn.

Legend:
αvβ5 integrin receptor = αvβ5 integrin receptor (Homo sapiens, UniProt P06756+P18084); experiment: Competition ELISA, integrin antagonism (fibronectin ligand); settings: fibronectin binding to coated receptor, read-out: EC50 ανβ5
Method: (§1) Suitable methods for determining EC50 values are known to the skilled person. One particular method to determine the value for a particular compound is a competition ELISA assay wherein the integrin receptor under investigation (in particular human αvβ3 integrin receptor) is coated to a multi-well plate using a 4 μg/mL solution and the wells are blocked with 5% bovine serum albumin. The fibronectin concentration to be used in the assay is determined experimentally in a separate experiment by testing the binding of various fibronectin concentrations to the coated integrin under investigation, the concentration of fibronectin for the assay being the one that gives 80% of maximal binding. The determined concentration of human fibronectin is then added to the coated and blocked wells in the presence of increasing concentrations of the compound. After 2 h incubation at 37° C., the wells are washed and the bound fibronectin is detected with the help of a specific reagent, such as a detectable anti-fibronectin antibody. Quantitative analysis of the data is then performed to determine EC50 values, i.e. the concentration of the compound that reduces fibronectin binding to the coated receptor by 50%.
(§2) The principle of the competition ELISA assays used here was as follows: (1) the integrin receptor under investigation was coated to 96-well plates and the wells were blocked, (2) an integrin ligand (fibronectin) was then added to the relevant wells in the presence of increasing concentrations of a given integrin antagonist, (3) after a defined amount of time, the wells were washed and the bound ligand was detected with the help of a specific reagent. Quantitative analysis of the data was then performed to determine EC50 values, i.e. the concentration of the integrin antagonist that reduces ligand binding to the coated receptor by 50%.

α5β1 integrin receptor = α5β1 integrin receptor (Homo sapiens, UniProt P05556+P08648); experiment: as above; settings: fibronectin binding to coated receptor
Method: as §1, §2

platelet integrin αIIbβ3 = platelet integrin αIIbβ3 (Homo sapiens, UniProt P05106+P08514); experiment: as above; settings: fibronectin binding to coated receptor
Method: as §1, §2

αvβ3 integrin receptor = αvβ3 integrin receptor (Homo sapiens, UniProt P05106+P06756); experiment: as above; settings: fibronectin binding to coated receptor, read-out: EC50 ανβ3
Method: as §1, §2

[1] = test system: human umbilical vein endothelial cells (HUVECs); experiment: ORIS Cell Migration Assay; format: cell-based; settings: HUVEC, fibronectin-coated plates, 24 h migration
Method: Endothelial cell wound healing is mediated by endothelial cell migration and proliferation, both critical components of the angiogenesis process, and is routinely used as a surrogate model for in vitro angiogenic potential. The ORIS™ Cell Migration Assay was used with human umbilical vein endothelial cells (HUVECs).
HUVEC cells (SCCE-001, Cat no 1000519, Merck Chemicals) were cultured in T175 flasks (Cat no 353112, falcon) in EndoGro Growth Medium (SCME-003, Merck Chemicals) and split when they reached 90-100% confluence.
For the assay, cells were used at passage 2 to 4 after thawing and at 80-90% confluency. At the beginning of the day, the fibronectin-coated Oris™ Cell Migration Assay Plates (Cat no # CMAFN.101, AMS Biotechnology) were removed from refrigeration and placed at RT for 1 h. The Oris Detection Masks were washed with ethanol and applied to the bottom of the 96-well plates, aligning the Al corner of the masks with the Al corner of the plates. Cells were harvested by trypsinization (Cat no 25300, Gibco), centrifuged at 250 g for 5 mm and suspended at 0.4·10^6 per mL in complete EndoGro growth medium. 100 μL of the cell suspension were added to the wells and the plates were incubated for 6 h at 37° C. and 5% C02 to allow cells to adhere.
At the end of the incubation, the stopper tool was washed with ethanol and used to remove the stoppers from all the wells except the reference wells. […]
Just prior to the end of the incubation, a 4 μg/mL calcein AM (Cat no 354217, Beckton Dickinson) solution was prepared in pre-warmed HBSS (Cat no 14025, Gibco). […] After incubation the fluorescence was read at 494 nm excitation and 517 nm emission wavelengths using the Flexstation and the SofiMax Pro 5.4.5 software (Molecular Devices). The fluorescence was read from the bottom of the plates with the lid on to keep them sterile. The masks were then removed and pictures were taken with the Axiovert fluorescence microscope (Zeiss) using reflected light, GFP and a 2.5× objective.

[2] = test system: RPE-choroid sclera explants; experiment: Murine choroidal explant assay (vessel sprouting); format: cell-based, C57BL/6J mice; settings: for IC50: Mus musculus, murine choroid explants in fibrin gel, 3 to 4 days, read-out: IC50 vessel outgrowth
From the text: The assay is based on a murine microvascular angiogenesis explant model, which closely mimics in viva choroidal angiogenesis. The major advantage of this organotypical culture model is that cells are kept within their normal environment, thereby preserving cell-cell interactions, while maintaining a higher level of experimental control than in animal models. The choroidal explant model or briefly EMCA model allows for rapid evaluation of new anti-angiogenic therapeutics, with the additional benefit of excluding the potential lack of exposure often encountered when testing small molecules in animal eyes. RPE-choroid sclera explants (hereinafter referred to as choroid explants) are embedded in a three-dimensional fibrinogen/fibrin gel. Addition of serum-containing medium induces extensive endothelial cell sprout outgrowth into the matrix after 3 to 4 days in culture.
All experiments were performed using 4 to 5-weeks old male C57BL/6J mice (Charles River Laboratories France), housed under standard laboratory conditions according to a normal day/night rhythm with ad libitum access to food and water. All animal experiments were approved by the Institutional Ethical Committee of KU Leuven.
After initial optimization, a general protocol was set-up. Briefly, after euthanasia of the mice using pentobarbital (200 mg/kg, IP, Dolethal, Vetoquinol) followed by cervical dislocation, eyes were immediately enucleated with curved forceps and kept in ice-cold DPBS (cat no 14190-136, Gihco). Under a stereomicroscope, the eye was placed in a drop of ice-cold DPBS, and held in place with forceps on an ice-cold petri dish. The cornea and lens were removed via a circumferential incision at the limbus (cornea-sclera boundary) using Vannas spring scissors (Fine Science Tools). Next, redundant muscles were removed from the remaining eyeball and a cut was made from the edge of the posterior chamber towards the optic nerve head. […]

Row | EC50 (αvβ5 integrin receptor) | EC50 (α5β1 integrin receptor) | EC50 (platelet integrin αIIbβ3) | EC50 (αvβ3 integrin receptor) | SMILES | IC50 [1] | IC50 [2] | endothelial sprout formation, in words ([2]; murine choroid explants)
1 | 1 to 10 nM | 1 to 10 nM | 1 to 10 nM | 10 to 25 nM | Cc1nc(NC[C@H](NC(=O)OCc2ccccc2)C(=O)O)c(C)c(N2CCC(c3ccc4c(n3)NCCC4)CC2)n1 [cpdB, reference compound] | < 1000 nM | ~1000 nM | 
2 | 1 to 10 nM | 1 to 10 nM | 1 to 10 nM | 1 to 10 nM | COC(=O)CCOC(=O)N[C@@H](CNc1nc(C)nc(N2CCC(c3ccc4c(n3)NCCC4)CC2)c1C)C(=O)O [cpdA, (2S)-3-({2,5-dimethyl-6-[4-(5,6,7,8-tetrahydro-1,8-naphthyridin-2-yl)piperidin-1-yl]pyrimidin-4-yl}amino)-2-{[(3-methoxy-3-oxopropoxy)carbonyl]amino}propanoic acid trifluoro acetate, reference compound] |  |  | 

Second part, the molecule before the results:

Row | SMILES | EC50 (αvβ5 integrin receptor) | EC50 (α5β1 integrin receptor) | EC50 (platelet integrin αIIbβ3) | EC50 (αvβ3 integrin receptor) | IC50 [1] | IC50 [2] | endothelial sprout formation, in words ([2]; murine choroid explants)
3 | Cc1nc(NC[C@H](NC(=O)OC(C)C(=O)O)C(=O)O)c(C)c(N2CCC(c3ccc4c(n3)NCCC4)CC2)n1 (stereo partly drawn) [cpd3, (2S)-2-{[(1-carboxyethoxy)carbonyl]amino}-3-({2,5-dimethyl-6-[4-(5,6,7,8-tetrahydro-1,8-naphthyridin-2-yl)piperidin-1-yl]pyrimidin-4-yl}amino)propanoic acid, dihydrochloride] | 1 to 10 nM | 1 to 10 nM | > 25 nM | 1 to 10 nM | < 1000 nM | ~1000 nM | inhibition of vessel sprouting
4 | Cc1nc(NC[C@H](NC(=O)OCCC(=O)O)C(=O)O)c(C)c(N2CCC(c3ccc4c(n3)NCCC4)CC2)n1 [cpd1, (2S)-2-{[(2-carboxyethoxy)carbonyl]amino}-3-({2,5-dimethyl-6-[4-(5,6,7,8-tetrahydro-1,8-naphthyridin-2-yl)piperidin-1-yl]pyrimidin-4-yl}amino)propanoic acid] | 1 to 10 nM | 1 to 10 nM | > 25 nM | 1 to 10 nM |  |  | 
5 | Cc1nc(NC[C@H](NC(=O)OCC(=O)O)C(=O)O)c(C)c(N2CCC(c3ccc4c(n3)NCCC4)CC2)n1 [cpd2, (2S)-2-([(carboxymethoxy)carbonyl]amino)-3-({2,5-dimethyl-6-[4-(5,6,7,8-tetrahydro-1,8-naphthyridin-2-yl)piperidin-1-yl]pyrimidin-4-yl}amino)propanoic acid dihydrochloride] | 1 to 10 nM | 1 to 10 nM | > 25 nM | 1 to 10 nM | < 1000 nM |  | 
